As usually defined, the surface tension liquid-gas is the force per length acting along the surface. What is called mass density is mass per unit of volume.

Among the data in the NIST ThermoML archive (doi:10.1016/j.jct.2013.04.014) are surface tension liquid-gas and mass density values, retold here.

SMILES strings stand for the structures. Numbers after ± are expanded uncertainties.

For data set [1] the following is noted: 298.2 K; for surface tension liquid-gas: Pendant drop shape; for mass density: 101.33 kPa, Liquid, Vibrating tube method.
Data set [2] in a line: xn = mol fraction of the nth substance listed. To be noted: 298.2 K; for surface tension liquid-gas: Pendant drop shape; for mass density: 101.33 kPa, Liquid, Vibrating tube method.

On to `CCCC[n+]1ccn(C)c1.O=S(=O)([N-]S(=O)(=O)C(F)(F)F)C(F)(F)F`, for which, in data set [1], the surface tension liquid-gas was determined as 33.15 ± 1.1 mN/m and the mass density amounted to 1436.9 ± 2.1 kg/m3.

Regarding `CCCCn1cc[n+](C)c1C.O=S(=O)([N-]S(=O)(=O)C(F)(F)F)C(F)(F)F`, in data set [1], the surface tension liquid-gas came out at 34.5 ± 1.1 mN/m and the mass density is 1421.2 ± 2.1 kg/m3.

For the compound `CCC[N+]1(C)CCCC1.O=S(=O)([N-]S(=O)(=O)C(F)(F)F)C(F)(F)F`, in data set [1], the surface tension liquid-gas stood at 35.35 ± 1.1 mN/m and the mass density is on record as 1431.7 ± 2.1 kg/m3.

As for `CCC[N+]1(C)CCCCC1.O=S(=O)([N-]S(=O)(=O)C(F)(F)F)C(F)(F)F`, in data set [1], the surface tension liquid-gas is reported as 35.17 ± 1.1 mN/m and the mass density worked out at 1411.4 ± 2.1 kg/m3.

As to `CCC[n+]1cccc(C)c1.O=S(=O)([N-]S(=O)(=O)C(F)(F)F)C(F)(F)F`, in data set [1], the surface tension liquid-gas amounted to 35.02 ± 1.1 mN/m and the mass density stood at 1449.7 ± 2.1 kg/m3.

On to `CCCCn1cc[n+](C)c1C.O=S(=O)([N-]S(=O)(=O)C(F)(F)F)C(F)(F)F` + CCCC[n+]1ccn(C)c1.O=S(=O)([N-]S(=O)(=O)C(F)(F)F)C(F)(F)F, for which the surface tension liquid-gas is 33.38 ± 1.1 mN/m in data set [2] (x1 = 0.2193); 33.59 ± 1.1 mN/m in data set [2] (x1 = 0.3981); 33.72 ± 1.1 mN/m in data set [2] (x1 = 0.4962); 33.87 ± 1.1 mN/m in data set [2] (x1 = 0.5995); 34.16 ± 1.1 mN/m in data set [2] (x1 = 0.7896); 34.5 ± 1.1 mN/m in data set [2] (x1 = 1). The mass density in data set [2] (x1 = 0.2193) amounted to 1433.8 ± 2.1 kg/m3; in data set [2] (x1 = 0.3981), 1431.2 ± 2.1 kg/m3; in data set [2] (x1 = 0.4962), 1429.6 ± 2.1 kg/m3; in data set [2] (x1 = 0.5995), 1428 ± 2.1 kg/m3; in data set [2] (x1 = 0.7896), 1424.9 ± 2.1 kg/m3; in data set [2] (x1 = 1), 1421.2 ± 2.1 kg/m3.

Regarding `CCC[N+]1(C)CCCC1.O=S(=O)([N-]S(=O)(=O)C(F)(F)F)C(F)(F)F` + CCCC[n+]1ccn(C)c1.O=S(=O)([N-]S(=O)(=O)C(F)(F)F)C(F)(F)F, the surface tension liquid-gas in data set [2] (x1 = 0.2094) is 33.63 ± 1.1 mN/m; in data set [2] (x1 = 0.3935), 34.04 ± 1.1 mN/m; in data set [2] (x1 = 0.5004) it was 34.27 ± 1.1 mN/m; in data set [2] (x1 = 0.5943), 34.48 ± 1.1 mN/m; in data set [2] (x1 = 0.7854), 34.89 ± 1.1 mN/m; in data set [2] (x1 = 1), 35.35 ± 1.1 mN/m. Further, the mass density is listed as 1436.9 ± 2.1 kg/m3 in data set [2] (x1 = 0.2094); 1436.4 ± 2.1 kg/m3 in data set [2] (x1 = 0.3935); 1435.9 ± 2.1 kg/m3 in data set [2] (x1 = 0.5004); 1435.4 ± 2.1 kg/m3 in data set [2] (x1 = 0.5943); 1433.9 ± 2.1 kg/m3 in data set [2] (x1 = 0.7854); 1431.7 ± 2.1 kg/m3 in data set [2] (x1 = 1).

`CCC[N+]1(C)CCCCC1.O=S(=O)([N-]S(=O)(=O)C(F)(F)F)C(F)(F)F` + CCCC[n+]1ccn(C)c1.O=S(=O)([N-]S(=O)(=O)C(F)(F)F)C(F)(F)F: the surface tension liquid-gas in data set [2] (x1 = 0.2156) came to 33.53 ± 1.1 mN/m; in data set [2] (x1 = 0.4069) it was 33.9 ± 1.1 mN/m; in data set [2] (x1 = 0.4988), 34.08 ± 1.1 mN/m; in data set [2] (x1 = 0.5955), 34.28 ± 1.1 mN/m; in data set [2] (x1 = 0.7958), 34.71 ± 1.1 mN/m; in data set [2] (x1 = 1) it was 35.17 ± 1.1 mN/m. In addition, the mass density in data set [2] (x1 = 0.2156) is 1432.9 ± 2.1 kg/m3; in data set [2] (x1 = 0.4069) it was 1428.5 ± 2.1 kg/m3; in data set [2] (x1 = 0.4988), 1426.2 ± 2.1 kg/m3; in data set [2] (x1 = 0.5955), 1423.7 ± 2.1 kg/m3; in data set [2] (x1 = 0.7958), 1417.9 ± 2.1 kg/m3; in data set [2] (x1 = 1), 1411.4 ± 2.1 kg/m3.

As for `CCC[n+]1cccc(C)c1.O=S(=O)([N-]S(=O)(=O)C(F)(F)F)C(F)(F)F` + CCCC[n+]1ccn(C)c1.O=S(=O)([N-]S(=O)(=O)C(F)(F)F)C(F)(F)F, the surface tension liquid-gas is 33.42 ± 1.1 mN/m in data set [2] (x1 = 0.2093); 33.73 ± 1.1 mN/m in data set [2] (x1 = 0.3996); 33.91 ± 1.1 mN/m in data set [2] (x1 = 0.4995); 34.12 ± 1.1 mN/m in data set [2] (x1 = 0.6047); 34.55 ± 1.1 mN/m in data set [2] (x1 = 0.8024); 35.02 ± 1.1 mN/m in data set [2] (x1 = 1). The mass density in data set [2] (x1 = 0.2093) turned out to be 1440.2 ± 2.1 kg/m3; in data set [2] (x1 = 0.3996) it was 1442.9 ± 2.1 kg/m3; in data set [2] (x1 = 0.4995), 1444.2 ± 2.1 kg/m3; in data set [2] (x1 = 0.6047), 1445.5 ± 2.1 kg/m3; in data set [2] (x1 = 0.8024), 1447.7 ± 2.1 kg/m3; in data set [2] (x1 = 1), 1449.7 ± 2.1 kg/m3.

As for `CCCC[n+]1ccn(C)c1.O=S(=O)([N-]S(=O)(=O)C(F)(F)F)C(F)(F)F` + CCCCn1cc[n+](C)c1C.O=S(=O)([N-]S(=O)(=O)C(F)(F)F)C(F)(F)F, in data set [2] (x2 = 0), the surface tension liquid-gas is reported as 33.15 ± 1.1 mN/m and the mass density came to 1436.9 ± 2.1 kg/m3.

As for `CCCC[n+]1ccn(C)c1.O=S(=O)([N-]S(=O)(=O)C(F)(F)F)C(F)(F)F` + CCC[N+]1(C)CCCC1.O=S(=O)([N-]S(=O)(=O)C(F)(F)F)C(F)(F)F, in data set [2] (x2 = 0), the surface tension liquid-gas was 33.15 ± 1.1 mN/m and the mass density is recorded as 1436.9 ± 2.1 kg/m3.

Turning to `CCCC[n+]1ccn(C)c1.O=S(=O)([N-]S(=O)(=O)C(F)(F)F)C(F)(F)F` + CCC[N+]1(C)CCCCC1.O=S(=O)([N-]S(=O)(=O)C(F)(F)F)C(F)(F)F, in data set [2] (x2 = 0), the surface tension liquid-gas came out at 33.15 ± 1.1 mN/m and the mass density was 1436.9 ± 2.1 kg/m3.

Consider `CCCC[n+]1ccn(C)c1.O=S(=O)([N-]S(=O)(=O)C(F)(F)F)C(F)(F)F` + CCC[n+]1cccc(C)c1.O=S(=O)([N-]S(=O)(=O)C(F)(F)F)C(F)(F)F, for which, in data set [2] (x2 = 0), the surface tension liquid-gas is reported as 33.15 ± 1.1 mN/m and the mass density is listed as 1436.9 ± 2.1 kg/m3.
